Experimental data taken from patent publication US20230100838A1 (Revolution Medicines, Inc., priority 2019, published 2023).

Key:
[1] = molecular target: T1, GDP-loaded K-Ras (1-169) G12D, C51S, C80L, C118S (Homo sapiens, UniProt P01116, C118S/C51S/C80L/G12D); assay: K-Ras G12D(GDP) cross-linking assay (conjugate formation, TOF mass spectrometry); type: binding; set-up: key: 0: No observed x-linking; +: 0 < x ≤ 20; ++: 20 < x ≤ 40; +++: 40 < x ≤ 100; conditions: Table 5; percent covalently modified K-Ras by MS; room temperature; typical compound conc. 2, 10, 25 μM, endpoints 1 and 24 h
T1 construct: GDP-loaded K-Ras (1-169) G12D, C51S, C80L, C118S
Procedure: (§1) Protocol: K-Ras G12D(GDP) Cross-Linking Assay
(§2) Note: while the following protocol outlines the procedure for K-Ras G12D(GDP), a person of skill in the art may substitute other Ras proteins, and may also substitute a non-hydrolyzable GTP analog for GDP to study GTP bound Ras protein.
(§3) GDP-loaded K-Ras (1-169) G12D, C51S, C80L, C118S and GDP-loaded K-Ras (1-169) C51S, C80L, C118S were adjusted to 50 μM in K-Ras assay buffer (12.5 mM HEPES, 75 mM NaCl and 1 mM MgCl2 at pH 7.4). A 5 μL aliquot of each protein solution was added to each well of a 96-well microplate containing 40 μL of assay buffer. Initial compound stocks were prepared in DMSO at 100 times their final assay concentration. Compounds were then diluted 10-fold into K-Ras assay buffer to 10 times their final concentration. A 5 μL aliquot of each diluted compound solution was added to each protein solution in the 96-well microplate to initiate the reaction, which then proceeded at room temperature. Typical final compound concentrations were 2, 10, and 25 μM. At each time point, the reactions were analyzed immediately or quenched with 5 μL of a 5% formic acid solution and kept at 4° C. until analysis. Typical assay endpoints were 1 and 24 h.
(§4) Data collection took place on an Agilent 6230 TOF Mass Spectrometer. Complete reactions were injected onto a C4 reverse-phase column to separate protein from buffer components prior to entering the mass spectrometer. The proteins were eluted from the column by increasing acetonitrile fraction in the mobile phase and fed directly into the mass analyzer. Initial analysis of raw data took place in Agilent MassHunter BioConfirm software and consisted of deconvolution of multiple protein charge states with the maximum entropy algorithm, with a mass step of 1 Da. The heights of all deconvoluted protein masses were exported for further data analysis. The percent modification of each protein was then determined by calculating the peak height of the covalently modified K-Ras species as a percentage of the sum total of K-Ras protein peak height.

[2] = molecular target: T2, GDP-loaded K-Ras (1-169) C51S, C80L, C118S (Homo sapiens, UniProt P01116, C118S/C51S/C80L); assay: K-Ras WT (GDP) cross-linking assay (conjugate formation, TOF mass spectrometry); type: binding; set-up: key: 0: No observed x-linking; +: 0 < x ≤ 20; ++: 20 < x ≤ 40; +++: 40 < x ≤ 100; conditions: Table 5; percent covalently modified K-Ras by MS; room temperature; typical compound conc. 2, 10, 25 μM, endpoints 1 and 24 h
T2 construct: GDP-loaded K-Ras (1-169) C51S, C80L, C118S
Procedure: as §1, §2, §3, §4

COC(=O)[C@@H]1CN1C(=O)N1CCN(c2nc(OC[C@@H]3CCCN3C)nc3c2CCN(c2cccc4cccc(C)c24)C3)C[C@@H]1CC#N [Example 109, methyl (S)-1-((S)-2-(cyanomethyl)-4-(7-(8-methylnaphthalen-1-yl)-2-(((S)-1-methylpyrrolidin-2-yl)methoxy)-5,6,7,8-tetrahydropyrido[3,4-d]pyrimidin-4-yl)piperazine-1-carbonyl)aziridine-2-carboxylate]
G12D x-linking (%) [1]: + (0 < x ≤ 20)
WT x-linking (%) [2]: + (0 < x ≤ 20)

Cc1ccc2[nH]ncc2c1N1CCc2c(nc(OC[C@@H]3CCCN3C)nc2N2CCN(C(=O)[C@H]3CN3)[C@@H](CC#N)C2)C1 [Example 110, 2-((S)-1-((R)-aziridine-2-carbonyl)-4-(7-(5-methyl-1H-indazol-4-yl)-2-(((S)-1-methylpyrrolidin-2-yl)methoxy)-5,6,7,8-tetrahydropyrido[3,4-d]pyrimidin-4-yl)piperazin-2-yl)acetonitrile]
G12D x-linking (%) [1]: + (0 < x ≤ 20)
WT x-linking (%) [2]: + (0 < x ≤ 20)

Cc1ccc2[nH]ncc2c1N1CCc2c(nc(OC[C@@H]3CCCN3C)nc2N2CCN(C(=O)[C@@H]3CN3)[C@@H](CC#N)C2)C1 [Example 111, 2-((S)-1-((S)-aziridine-2-carbonyl)-4-(7-(5-methyl-1H-indazol-4-yl)-2-(((S)-1-methylpyrrolidin-2-yl)methoxy)-5,6,7,8-tetrahydropyrido[3,4-d]pyrimidin-4-yl)piperazin-2-yl)acetonitrile]
G12D x-linking (%) [1]: + (0 < x ≤ 20)
WT x-linking (%) [2]: 0

CN1CCC[C@H]1COc1nc2c(c(N3CCN(C(=O)[C@H]4CN4)[C@@H](CC#N)C3)n1)CCN(c1cccc3cccc(Cl)c13)C2 [Example 112, 2-((S)-1-((R)-aziridine-2-carbonyl)-4-(7-(8-chloronaphthalen-1-yl)-2-(((S)-1-methylpyrrolidin-2-yl)methoxy)-5,6,7,8-tetrahydropyrido[3,4-d]pyrimidin-4-yl)piperazin-2-yl)acetonitrile]
G12D x-linking (%) [1]: ++ (20 < x ≤ 40)
WT x-linking (%) [2]: 0

CN1CCC[C@H]1COc1nc2c(c(N3CCN(C(=O)[C@@H]4CN4)[C@@H](CC#N)C3)n1)CCN(c1cccc3cccc(Cl)c13)C2 [Example 113, 2-((S)-1-((S)-aziridine-2-carbonyl)-4-(7-(8-chloronaphthalen-1-yl)-2-(((S)-1-methylpyrrolidin-2-yl)methoxy)-5,6,7,8-tetrahydropyrido[3,4-d]pyrimidin-4-yl)piperazin-2-yl)acetonitrile]
G12D x-linking (%) [1]: + (0 < x ≤ 20)
WT x-linking (%) [2]: + (0 < x ≤ 20)

CN1CCC[C@H]1COc1nc2c(c(N3CCN(C(=O)[C@H]4CN4)[C@@H](CC#N)C3)n1)CCN(c1cc(O)cc3ccccc13)C2 [Example 114]
G12D x-linking (%) [1]: ++ (20 < x ≤ 40)
WT x-linking (%) [2]: 0

CN1CCC[C@H]1COc1nc2c(c(N3CCN(C(=O)[C@@H]4CN4)[C@@H](CC#N)C3)n1)CCN(c1cc(O)cc3ccccc13)C2 [Example 115]
G12D x-linking (%) [1]: + (0 < x ≤ 20)
WT x-linking (%) [2]: 0

C#CCCN1CCC[C@H]1COc1nc2c(c(N3CCN(C(=O)[C@H]4CN4)[C@@H](CC#N)C3)n1)CCN(c1cccc3cccc(C)c13)C2 [Example 116, 2-((S)-1-((R)-aziridine-2-carbonyl)-4-(2-(((S)-1-(but-3-yn-1-yl)pyrrolidin-2-yl)methoxy)-7-(8-methylnaphthalen-1-yl)-6,6,7,8-tetrahydropyrldo[3,4-d]pyrimidin-4-yl)piperazin-2-yl)acetonitrile]
G12D x-linking (%) [1]: + (0 < x ≤ 20)
WT x-linking (%) [2]: + (0 < x ≤ 20)

C#CCCN1CCC[C@H]1COc1nc2c(c(N3CCN(C(=O)[C@@H]4CN4)[C@@H](CC#N)C3)n1)CCN(c1cccc3cccc(C)c13)C2 [Example 117, 2-((S)-1-((S)-aziridine-2-carbonyl)-4-(2-(((S)-1-(but-3-yn-1-yl)pyrrolidin-2-yl)methoxy)-7-(8-methylnaphthalen-1-yl)-5,6,7,8-tetrahydropyrido[3,4-d]pyrimidin-4-yl)piperazin-2-yl)acetonitrile]
G12D x-linking (%) [1]: + (0 < x ≤ 20)
WT x-linking (%) [2]: 0

CC(=O)N1C[C@H]1CN1CCN(c2nc(OC[C@@H]3CCCN3C)nc3c2CCN(c2cccc4cccc(C)c24)C3)C[C@@H]1CC#N [Example 118, 2-((S)-1-(((R)-1-acetylaziridin-2-yl)methyl)-4-(7-(8-methylnaphthalen-1-yl)-2-(((S)-1-methylpyrrolidin-2-yl)methoxy)-5,6,7,8-tetrahydropyrido[3,4-d]pyrimidin-4-yl)piperazin-2-yl)acetonitrile]
G12D x-linking (%) [1]: + (0 < x ≤ 20)
WT x-linking (%) [2]: + (0 < x ≤ 20)

CC(=O)N1C[C@@H]1CN1CCN(c2nc(OC[C@@H]3CCCN3C)nc3c2CCN(c2cccc4cccc(C)c24)C3)C[C@@H]1CC#N [Example 119, 2-((S)-1-(((S)-1-acetylaziridin-2-yl)methyl)-4-(7-(8-methylnaphthalen-1-yl)-2-(((S)-1-methylpyrrolidin-2-yl)methoxy)-5,6,7,8-tetrahydropyrido[3,4-d]pyrimidin-4-yl)piperazin-2-yl)acetonitrile]
G12D x-linking (%) [1]: + (0 < x ≤ 20)
WT x-linking (%) [2]: + (0 < x ≤ 20)

O=C([C@H]1CN1)N1CCN2c3ncnc4cc(-c5c(O)cccc5F)c(Cl)c(c34)OC[C@@H]2C1 [Example 120, ((R)-aziridin-2-yl)((8aS)-6-chloro-5-(2-fluoro-6-hydroxyphenyl)-8a,9,11,12-tetrahydropyrazino[2′,1′:3,4][1,4]oxazepino[5,6,7-de]quinazolin-10(8H)-yl)methanone]
G12D x-linking (%) [1]: 0
WT x-linking (%) [2]: 0

O=C([C@@H]1CN1)N1CCN2c3ncnc4cc(-c5c(O)cccc5F)c(Cl)c(c34)OC[C@@H]2C1 [Example 121]
G12D x-linking (%) [1]: 0
WT x-linking (%) [2]: 0

Cc1ccc2[nH]ncc2c1-c1cc2ncnc3c2c(c1Cl)OCC[C@@H]1CN(C(=O)[C@@H]2CN2)CCN31 [Example 123]
G12D x-linking (%) [1]: 0
WT x-linking (%) [2]: 0

Cc1cccc2cccc(N3CCc4c(nc(OC[C@@H]5CCCN5C)nc4N4CC[C@@H](NC(=O)[C@H]5CN5)[C@@H](CC#N)C4)C3)c12 [Example 125]
G12D x-linking (%) [1]: + (0 < x ≤ 20)
WT x-linking (%) [2]: + (0 < x ≤ 20)

Cc1cccc2cccc(N3CCc4c(nc(OC[C@@H]5CCCN5C)nc4N4CC[C@H](NC(=O)[C@H]5CN5)[C@@H](CC#N)C4)C3)c12 [Example 126]
G12D x-linking (%) [1]: + (0 < x ≤ 20)
WT x-linking (%) [2]: + (0 < x ≤ 20)

Cc1cccc2cccc(N3CCc4c(nc(OC[C@@H]5CCCN5C)nc4N4CC[C@H](NC(=O)[C@@H]5CN5)[C@@H](CC#N)C4)C3)c12 [Example 127]
G12D x-linking (%) [1]: + (0 < x ≤ 20)
WT x-linking (%) [2]: + (0 < x ≤ 20)

Cc1cccc2cccc(N3CCc4c(nc(OC[C@@H]5CCCN5C)nc4N4CC[C@@H](NC(=O)[C@@H]5CN5)[C@@H](CC#N)C4)C3)c12 [Example 128]
G12D x-linking (%) [1]: + (0 < x ≤ 20)
WT x-linking (%) [2]: + (0 < x ≤ 20)

Cc1cccc2cccc(N3CCc4c(nc(OC[C@@H]5CCCN5C)nc4N4CC[C@@H](NC(=O)C5CN5)C4)C3)c12 (stereo partly drawn) [Example 129]
G12D x-linking (%) [1]: + (0 < x ≤ 20)
WT x-linking (%) [2]: 0

Cc1cccc2cccc(N3CCc4c(nc(OC[C@@H]5CCCN5C)nc4N4CC[C@H](NC(=O)C5CN5)C4)C3)c12 (stereo partly drawn) [Example 130]
G12D x-linking (%) [1]: + (0 < x ≤ 20)
WT x-linking (%) [2]: 0

Cc1cccc2cccc(N3CCc4c(nc(OC[C@@H]5CCCN5C)nc4N4CCN(C(=O)[C@H]5CN5S(C)(=O)=O)[C@@H](CC#N)C4)C3)c12 (stereo partly drawn) [Example 131]
G12D x-linking (%) [1]: + (0 < x ≤ 20)
WT x-linking (%) [2]: + (0 < x ≤ 20)

Cc1cccc2cccc(N3CCc4c(nc(OC[C@@H]5CCCN5C)nc4N4CCN(C(=O)[C@@H]5CN5S(C)(=O)=O)[C@@H](CC#N)C4)C3)c12 (stereo partly drawn) [Example 132]
G12D x-linking (%) [1]: + (0 < x ≤ 20)
WT x-linking (%) [2]: + (0 < x ≤ 20)

O=C([C@@H]1CN1)N1CCN2c3ncnc4cc(-c5c(O)cccc5F)c(Cl)c(c34)OCC[C@@H]2C1 [Example 134]
G12D x-linking (%) [1]: + (0 < x ≤ 20)
WT x-linking (%) [2]: + (0 < x ≤ 20)

Cc1ccnc(C(C)C)c1-n1c(=O)nc(N2[C@H](C)CN(C(=O)[C@H]3CN3)C[C@@H]2C)c2cc(F)c(-c3c(O)cccc3F)nc21 [Example 135]
G12D x-linking (%) [1]: 0
WT x-linking (%) [2]: 0
